Four compounds from ChEMBL document CHEMBL3132853, “Facile synthesis of a polyether-tethered dimeric berberine as a highly effective DNA-cleaving agent in the presence of Cu(ii) ion” (Medchemcomm, 2013) can be followed below.

The source made the active and inactive calls. The rule behind the calls is not given here.

Assay [1] deals with DNA. As to the kind of experiment: Binding affinity to calf thymus DNA. Format: nucleic-acid assay. The following applies: Bos taurus.
Assay [2] relates to Escherichia coli. The experiment in a line: Induction of Escherichia coli pBR322 DNA cleavage assessed as conversion of supercoiled form into open circular form after 5 hrs by agarose gel electrophoresis in presence of Cu2+.
For assay [3], the system named is Escherichia coli. As to the kind of experiment: Induction of Escherichia coli pBR322 DNA cleavage assessed as conversion of supercoiled form into open circular form after 5 hrs by agarose gel electrophoresis in presence of Ni2+.
Assay [4] has as its system Escherichia coli. The experiment in a line: Induction of Escherichia coli pBR322 DNA cleavage assessed as conversion of supercoiled form into open circular form after 5 hrs by agarose gel electrophoresis in presence of Mn2+.
Assay [5] relates to Escherichia coli. The experiment in a line: Induction of Escherichia coli pBR322 DNA cleavage assessed as maximal catalytic rate constant at 0.12 mM by agarose gel electrophoresis in presence of Cu2+.
Assay [6] deals with Escherichia coli. As to the kind of experiment: Induction of Escherichia coli pBR322 DNA cleavage at 0.06 mM after 5 hrs by agarose gel electrophoresis in presence of Cu2+ and KI.
The subject of assay [7] is Escherichia coli. As to the kind of experiment: Induction of Escherichia coli pBR322 DNA cleavage at 0.06 mM after 5 hrs by agarose gel electrophoresis in presence of Cu2+ and t-BuOH.
Assay [8] concerns Escherichia coli. The experiment in a line: Induction of Escherichia coli pBR322 DNA cleavage assessed as conversion of supercoiled form into linear form after 5 hrs by agarose gel electrophoresis in presence of Cu2+.
Assay [9] has as its system Escherichia coli. The experiment in a line: Induction of Escherichia coli pBR322 DNA cleavage at Cu2+ to compound ratio >= 1 after 5 hrs by agarose gel electrophoresis.
Assay [10] has as its system Escherichia coli. As to the kind of experiment: Induction of Escherichia coli pBR322 DNA cleavage assessed as conversion of supercoiled form into open circular form after 5 hrs by agarose gel electrophoresis in presence of Zn2+.
Assay [11] relates to Escherichia coli. As to the kind of experiment: Induction of Escherichia coli pBR322 DNA cleavage at 0.01 to 0.08 mM after 5 hrs by agarose gel electrophoresis in presence of Cu2+.
Assay [12] deals with Escherichia coli. As to the kind of experiment: Induction of Escherichia coli pBR322 DNA cleavage at 0.06 mM after 5 hrs by agarose gel electrophoresis in presence of Cu2+ and TMP.
Assay [13] relates to DNA. As to the kind of experiment: Binding affinity to calf thymus DNA in presence of Cu2+. It is filed as nucleic-acid assay. The following applies: Bos taurus.
Assay [14] deals with Escherichia coli. As to the kind of experiment: Induction of Escherichia coli pBR322 DNA cleavage assessed as conversion of supercoiled form into open circular form after 5 hrs by agarose gel electrophoresis in presence of Co2+.
Assay [15] concerns Escherichia coli. As to the kind of experiment: Induction of Escherichia coli pBR322 DNA cleavage at 0.06 mM after 5 hrs by agarose gel electrophoresis in presence of Cu2+ and DMSO.
For assay [16], the system named is Escherichia coli. As to the kind of experiment: Induction of Escherichia coli pBR322 DNA cleavage assessed as conversion of supercoiled form into open circular form after 5 hrs by agarose gel electrophoresis in presence of Mg2+.
Assay [17] deals with Escherichia coli. As to the kind of experiment: Induction of Escherichia coli pBR322 DNA cleavage at 0.08 mM after 5 hrs by agarose gel electrophoresis.

On to `COCCOCCOCCOCCOc1c(OC)ccc2cc3[n+](cc12)CCc1cc2c(cc1-3)OCO2`, for which the K in the assay on DNA [1] amounted to 1.46 ×10³ /M. In the assay on Escherichia coli [2], the outcome was inactive.
Regarding `COc1ccc2cc3[n+](cc2c1OCCOCCOCCOCCOc1c(OC)ccc2cc4[n+](cc12)CCc1cc2c(cc1-4)OCO2)CCc1cc2c(cc1-3)OCO2`, the K with DNA [1] was found to be 1.51 ×10⁴ /M; with DNA [13] it was 2.38 ×10⁴ /M. Moreover, the result in the assay on Escherichia coli [3], in the assay on Escherichia coli [4], in the assay with Escherichia coli [6], with Escherichia coli [10], in the assay with Escherichia coli [14] and with Escherichia coli [16] was inactive. Besides, in the assay on Escherichia coli [17], the outcome was inactive. Moreover, the Kmax in the assay with Escherichia coli [5] came to 125 h⁻¹. Further, the result with Escherichia coli [2], with Escherichia coli [7], with Escherichia coli [8], with Escherichia coli [9], with Escherichia coli [11] and in the assay with Escherichia coli [12] was Active. Besides, the result with Escherichia coli [15] was Active.
`COc1ccc2cc3[n+](cc2c1OCCCOc1c(OC)ccc2cc4[n+](cc12)CCc1cc2c(cc1-4)OCO2)CCc1cc2c(cc1-3)OCO2`: the K in the assay with DNA [1] amounted to 1.15 ×10⁵ /M. The result with Escherichia coli [2] was inactive.
As for `COc1ccc2cc3[n+](cc2c1OC)CCc1cc2c(cc1-3)OCO2`, in the assay on DNA [1], the K was determined as 8.99 ×10³ /M.
